Data on three compounds can be found in patent US20070293451A1, “Regulation ao ApoB by Hsp110 proteins and related compositions and methods” (University of Pittsburgh, priority 2006, published 2007).

The target in one assay is T1, full-length Sse1p (Saccharomyces cerevisiae, UniProt P32589).
T1 sequence (P32589 1-693): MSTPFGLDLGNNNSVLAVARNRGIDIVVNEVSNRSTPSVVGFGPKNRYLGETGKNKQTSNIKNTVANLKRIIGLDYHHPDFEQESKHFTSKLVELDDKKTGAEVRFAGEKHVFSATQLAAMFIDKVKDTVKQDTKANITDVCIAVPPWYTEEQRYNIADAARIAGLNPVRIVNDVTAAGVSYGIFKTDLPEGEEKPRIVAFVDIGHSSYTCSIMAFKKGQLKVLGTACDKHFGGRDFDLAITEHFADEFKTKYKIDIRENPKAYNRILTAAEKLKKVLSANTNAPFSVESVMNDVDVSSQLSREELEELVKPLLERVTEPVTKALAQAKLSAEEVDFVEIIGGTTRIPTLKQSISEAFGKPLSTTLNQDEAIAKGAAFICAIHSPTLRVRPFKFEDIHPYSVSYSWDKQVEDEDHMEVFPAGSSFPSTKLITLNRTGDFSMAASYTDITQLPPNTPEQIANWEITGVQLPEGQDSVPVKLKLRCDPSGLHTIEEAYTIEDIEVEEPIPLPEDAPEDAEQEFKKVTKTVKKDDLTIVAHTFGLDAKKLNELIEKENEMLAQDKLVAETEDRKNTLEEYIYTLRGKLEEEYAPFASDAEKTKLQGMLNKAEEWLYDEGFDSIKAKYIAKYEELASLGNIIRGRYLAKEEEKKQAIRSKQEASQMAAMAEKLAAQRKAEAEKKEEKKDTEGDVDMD
Nature of the assay: Fluorescence anisotropy binding of labeled luciferase-derived peptide to full-length Sse1p. On the procedure: (§1) Binding was assessed by fluorescence anisotropy.
Background: Polarisation of emitted light reports the rotation of a fluorescent probe.

Assay [1] addresses Sse1p peptide binding domain (Saccharomyces cerevisiae, UniProt P32589). The note with it: fluorescence anisotropy. How it is done:
(SEQ ID NO: 1) (which derives from firefly luciferase), assessed by fluorescence anisotropy.
as §1

The test system of another assay is ApoB100. Description: ApoB100 biogenesis and secretion from McArdle cells (pulse-chase) on Hsp110 over-expression. It counts as cell-based, rat. Particulars: MTP inhibitor BMS-200150 present, without Hsp110 over-expression, data not shown. How it is done:
FIGS. 9A and 9B show the effect of Hsp110 over-expression on ApoB100 secretion from McArdle cells, a standard rat hepatoma cell model of lipoprotein metabolism. ApoB100 (FIG. 9A) and albumin (FIG. 9B) biogenesis and secretion were assessed by published pulse-chase analytical methods.
An Hsp110 expression vector was obtained from Dr. John Subjeck (Roswell Park Cancer Center, N.Y.), and either that vector or a vector control was introduced into McArdle cells—a rat hepatoma cell line that also expresses full-length ApoB (that is, ApoB100). […] As a control, there was no effect on albumin secretion from these cells, regardless of whether Hsp110 was over-expressed (FIG. 9B). Furthermore, the over-expression of Hsp110 in the McArdle cells in the presence of a microsomal triglyceride transfer protein (MTP) inhibitor (BMS-200150; Jamil, H., D. A. Gordon, D. C. Eustice, C. M. Brooks, J. K. Dickson, Jr., Y. Chen, B. Ricci, C.-H. Chu, T. W. Harrity, C. P. Ciosek, Jr., S. A. Biller, R. E. Gregg, and J. R. Wetterau. 1996. An inhibitor of the microsomal triglyceride transfer protein inhibits apoB secretion from HepG2 cells. Proc Natl Acad Sci USA. 93, 11991-95) increased the percent of apoB recovered in the lysate and medium fractions from 14% to 28% (data not shown).

Peptide text beside a SMILES is read from it. * marks the point of attachment. 6FAM = O=C1OC2(c3ccc(O)cc3Oc3cc(O)ccc32)c2cc(C(=O)*)ccc21; Ahx = NCCCCCC(=O)O

Turning to `CC[C@H](C)[C@H](NC(=O)[C@H](CC(C)C)NC(=O)CCCCCNC(=O)c1ccc2c(c1)C1(OC2=O)c2ccc(O)cc2Oc2cc(O)ccc21)C(=O)N[C@@H](CS)C(=O)NCC(=O)N[C@@H](Cc1ccccc1)C(=O)N[C@@H](CCCNC(=N)N)C(=O)N[C@H](C(=O)N[C@H](C(=O)N[C@@H](CC(C)C)C(=O)N[C@@H](CCSC)C(=O)N[C@@H](Cc1ccc(O)cc1)C(=O)N[C@@H](CCCNC(=N)N)C(=O)N[C@@H](Cc1ccccc1)C(=O)O)C(C)C)C(C)C` [6-carboxyfluorescein-aminohexanoic acid-linked-LICGFRVVLMYRF] ({6FAM-Ahx}-LICGFRVVLMYRF-OH), the equilibrium dissociation constant (Kd) (as a rule, the concentration at which binding is half-saturated) at full-length Sse1p is 2 to 3 nM. Further, the “lower affinity for Sse1p peptide binding domain alone compared with Sse1p” value in assay [1] is around 100 fold.

Turning to `O=C1c2ccccc2CN1C1CCN(CCC(c2ccccc2)c2ccccc2)CC1` [BMS-200150, reference compound], in the assay with ApoB100, the “percent of apoB recovered in the lysate and medium fractions” value came to 14%.

Turning to “LICGFRVVLMYRF [Unlabeled peptide, unlabeled form of the firefly luciferase-derived peptide]”, in the assay with full-length Sse1p (data not shown), the “competition with labeled peptide for binding” value is “competes for binding”.
